Experimental data reported in PMC7587962, “Evaluation of Cytotoxicity and α-Glucosidase Inhibitory Activity of Amide and Polyamino-Derivatives of Lupane Triterpenoids” (Molecules, 2020).
Read-outs that look alike come from different tables or passages of the source.

Tests used:
[1] = test system: 60 human tumor cell lines; test: cells
Klebsiella pneumonia = test: Antibacterial growth inhibition, K. pneumonia; format: cell-based; details: Klebsiella pneumoniae, ATCC700603, K. pneumonia Strain ATCC 700603
Pseudomonas aeruginosa = test: Antibacterial growth inhibition, P. aeruginosa; format: cell-based; details: P. aeruginosa Strain 19606
[2] = test system: methicillin-resistant Staphylococcus aureus (MRSA); test: Antibacterial growth inhibition, S. aureus; format: cell-based; details: for inhibition at 32 µg/mL: Staphylococcus aureus, ATCC 43300 / MRSA, S. aureus Strain ATCC 43300
[3] = test system: pathogenic microorganisms; test: Primary antimicrobial screening, five bacterial strains and two fungi; design: dose or concentration left out as unconfirmed
Method: The antifungal activity was determined against Candida albicans and Cryptococcus neoformans. […] Samples with inhibition value above 80% were classed as actives. Samples with inhibition values between 50 and 80% were classed as partial actives.
(§2) Samples were prepared in DMSO and water to a final testing concentration of 32 µg/mL, in 384-well, non-binding surface plate (NBS) for each bacterial/fungal strain, and in duplicate (n = 2) and keeping the final DMSO concentration to a maximum of 1% DMSO. All the sample-preparation was done using liquid handling robots.
All bacteria were cultured in cation-adjusted Mueller Hinton broth (CAMHB) at 37 °C overnight. A sample of each culture was then diluted 40-fold in fresh broth and incubated at 37 °C for 1.5–3 h. The resultant mid-log phase cultures were diluted (CFU/ ml measured by OD600), then added to each well of the compound containing plates, giving a cell density of 5 × 10^5 CFU/mL and a total volume of 50 µl. All the plates were covered and incubated at 37 °C for 18 h without shaking.
Inhibition of bacterial growth was determined measuring absorbance at 600 nm (OD600), using a Tecan M1000 Pro monochromator plate reader. The percentage of growth inhibition was calculated for each well, using negative control (media only) and positive control (bacteria without inhibitors) on the same plate as references. The significance of the inhibition values was determined by modified Z-scores, calculated using the median and MAD of the samples (no controls) on the same plate. Samples with inhibition value above 80% and Z-score above 2.5 for either replicate were classed as actives. […]
Fungi strains were cultured for 3 days on Yeast Extract-Peptone Dextrose (YPD) agar at 30 °C. A yeast suspension of 1 × 10^6 to 5 × 10^6 CFU/mL (as determined by OD530) was prepared from five colonies. […]
The absorbance was measured using a Biotek Synergy HTX plate reader. The percentage of growth inhibition was calculated for each well, using negative control (media only) and positive control (fungi without inhibitors) on the same plate. […]

Candida albicans = test: Antifungal growth inhibition, C. albicans; details: ATCC90028, read-out: % Growth inhibition
Method: (§3) The antifungal activity was determined against Candida albicans and Cryptococcus neoformans.
as §2
(§4) Fungi strains were cultured for 3 days on Yeast Extract-Peptone Dextrose (YPD) agar at 30 °C. A yeast suspension of 1 × 10^6 to 5 × 10^6 CFU/mL (as determined by OD530) was prepared from five colonies. The suspension was subsequently diluted and added to each well of the compound-containing plates giving a final cell density of fungi suspension of 2.5 × 10^3 CFU/mL and a total volume of 50 µl. All plates were covered and incubated at 35 °C for 24 h without shaking.
(§5) The absorbance was measured using a Biotek Synergy HTX plate reader. The percentage of growth inhibition was calculated for each well, using negative control (media only) and positive control (fungi without inhibitors) on the same plate. The significance of the inhibition values was determined by modified Z-scores, calculated using the median and MAD of the samples (no controls) on the same plate. Samples with an inhibition value above 80% and Z-score above 2.5 for either replicate (n = 2 on different plates) were classed as actives. Samples with inhibition values between 50% and 80% and a Z-score above 2.5 for either replicate were classed as partial actives.

Cryptococcus neoformans = test: Antifungal growth inhibition, C. neoformans; design: activity class in primary screening: dose or concentration left out as unconfirmed; details: for inhibition at 32 µg/mL: Cryptococcus neoformans, ATCC208821, read-out: % Growth inhibition
Method: as §3, §2, §4, §5

SR = test: NCI-60 SRB screen: leukemia SR; format: cell-based; details: Homo sapiens, 48 h, single dose 10 µM, read-out: Percentage Cell Growth
Escherichia coli = test: Antibacterial growth inhibition, E. coli; format: cell-based; details: ATCC25922, E. coli Strain ATCC 25922
Acinetobacter baumannii = test: Antibacterial growth inhibition, A. baumannii; format: cell-based; details: ATCC27853, A. baumannii Strain ATCC 27853
Yeast α-Glucosidase = test: Yeast α-glucosidase activity assay; format: biochemical, S. cerevisiae; details: pH 6.8, 37 °C, p-nitrophenyl-α-D-glucopyranoside 1 mM; read-out: Yeast α-Glucosidase, IC50 ± SE
Method: (§1) Taken together, these considerations prompted us to evaluate a series of lupanes with amide function or polyamine chain 11, 12, 16, 18, and 22–26 for α-glucosidase inhibition. Initially, they were screened against α-glucosidase of S. cerevisiae as an accessible and high-throughput model. Confirmatory experiments were performed on isolated rough endoplasmic reticulum vesicles from rat liver, which contain neutral α-glucosidases I and II in a membrane-bound form.
In a 96-well flat transparent plate, the 0.12 U/mL enzyme solution (EC 3.2.1.20, expressed in S. cerevisiae, Sigma #G0660, St. Louis, MO, USA) was incubated with test compounds in 67 mM PBS (pH 6.8) at 37 °C for 5 min. Then, p-nitrophenyl-α-D-glucopyranoside (Sigma #N1377, St. Louis, MO, USA) was added to 1 mM final concentration and an increase in absorbance was recorded for 15 min at 405 nm wavelength with Infinite M200 PRO microplate reader (Tecan, Austria). Test compounds were dissolved in DMSO and diluted to the desired concentration in 67 mM PBS (pH 6.8) supplemented with 0.01% Tween 80 to avoid aggregation. Final DMSO concentration was <0.25% in sample wells, and it was also introduced in control and blank wells. […] Due to the absence of normal distribution of data, a Mann–Whitney U-test was used to determine statistical significance versus enzyme control using GraphPad Prism 8.0.1.

[4] = test system: Rat Liver ER Neutral α-Glucosidase; test: Endoplasmic reticulum α-glucosidase activity assay; format: biochemical
Excerpt: as §1, with “Betulinic acid inhibits yeast α-glucosidase activity and interferes with N-linked glycan modifications to cell-surface intercellular adhesion molecule-1 (ICAM-1) in human lung carcinoma A549 cells in a similar manner to castanospermine, an inhibitor of endoplasmic reticulum α-glucosidases I and II [66]. […] Taken” for “Taken”
Endoplasmic reticulum was isolated from hepatocytes of decapitated male Sprague-Dawley rats, which were starved overnight and sacrificed the next morning. All experiments were approved by Volgograd regional ethic committee. The whole procedure was performed at 4 °C. In brief, a fresh tissue sample from an animal was washed twice with 10 mL of PBS to remove residual blood. The tissue was placed on a paper towel in order to absorb excess liquid and blood clots, if present. It was cut further into small pieces (1.5–2 cm) and washed once more. […] Homogenate was centrifuged at 1000× g for 10 min at 4 °C. After removal of the floating lipid layer by aspiration, supernatant was separated and centrifuged at 12,000× g for 15 min. at 4 °C. The supernatant fraction, which is the post mitochondrial fraction (PMF), was used for isolation of rough endoplasmic reticulum (RER) enriched microsomes by precipitation with 8 mM CaCl2 added dropwise. The final concentration of CaCl2 was 7 mM. Resulting sample was centrifuged at 8000 g for 10 min. at 4 °C. The supernatant was discarded, and the pellet was suspended in isotonic extraction buffer (0.3 mL of buffer for each g of original tissue). The suspension was homogenized completely to afford RER enriched microsomes. In a 96-well flat transparent plate 25 µL of the isolated RER microsomes were incubated with 50 µL of test compounds in 67 mM PBS (pH 6.8) at 37 °C for 10 min. Then, p-nitrophenyl-α-D-glucopyranoside (Sigma #N1377, St. Louis, MO, USA) was added to 1 mM final concentration and increase in absorbance was recorded for 42 min at 405 nm wavelength with Infinite M200 PRO microplate reader (Tecan, Austria). Concentration of RER microsomes was adjusted to achieve an increase in optical density of ~0.2 in control samples after 30 min. of incubation. Test compounds were prepared as described above for the yeast α-glucosidase assay.

## C=C(C)[C@@H]1CC[C@]2(C(=O)N3CCCNCC3)CC[C@]3(C)[C@H](CC[C@@H]4[C@@]5(C)CCC(=O)C(C)(C)[C@@H]5CC[C@]43C)[C@@H]12 [Compound 2, 28-(1,4-Diazepan-1-yl)-28-oxolup-20(29)-en-3-one]
[1]; read-out: Mean Growth, %
  activity at 10 µM: 89.5%
[1]; read-out: Range of Growth, %
  activity at 10 µM: 8.04 to 127%
Klebsiella pneumonia
  inhibition at 32 µg/mL: 0.98%
Pseudomonas aeruginosa
  inhibition at 32 µg/mL: 8.34%
[2]
  inhibition at 32 µg/mL: 40.3%
[3]
  inhibition of growth of pathogenic microorganisms: did not inhibit the growth
Candida albicans
  inhibition at 32 µg/mL: 4.14%
Cryptococcus neoformans
  inhibition at 32 µg/mL: -5.9%
SR
  activity at 10 µM: 8.04%
Escherichia coli
  inhibition at 32 µg/mL: 1.96%
Acinetobacter baumannii
  inhibition at 32 µg/mL: 33.1%

## C=C(C)[C@@H]1CC[C@]2(C(=O)NCCNCCN)CC[C@]3(C)[C@H](CC[C@@H]4[C@@]5(C)CCC(=O)C(C)(C)[C@@H]5CC[C@]43C)[C@@H]12 [Compound 12]
[1]; read-out: Mean Growth, %
  activity at 10 µM: 98.9%
[1]; read-out: Range of Growth, %
  activity at 10 µM: 59.1 to 141%
Klebsiella pneumonia
  inhibition at 32 µg/mL: 9.2%
Pseudomonas aeruginosa
  inhibition at 32 µg/mL: 7.72%
[2]
  inhibition at 32 µg/mL: 71.8%
[2]; methicillin-resistant S. aureus, one concentration of 32 µg/mL
  activity class in primary screening: partial activity
Candida albicans
  inhibition at 32 µg/mL: 11.7%
Yeast α-Glucosidase
  IC50: > 100 µM
Cryptococcus neoformans; C. neoformans, one concentration
  activity class in primary screening: partial activity
Cryptococcus neoformans
  inhibition at 32 µg/mL: 62.6%
[4]; 10 μM
  Rat Liver ER Neutral α-Glucosidase Inhibition, m ± SD: 10.21 ± 3.49%
[4]; 100 μM
  Rat Liver ER Neutral α-Glucosidase Inhibition, m ± SD: 23.59 ± 1.34 %
Escherichia coli
  inhibition at 32 µg/mL: -9.57%
Acinetobacter baumannii
  inhibition at 32 µg/mL: 19.5%

## C=C(C)[C@@H]1CC[C@]2(C(=O)NCCCNCCCN)CC[C@]3(C)[C@H](CC[C@@H]4[C@@]5(C)CCC(=O)C(C)(C)[C@@H]5CC[C@]43C)[C@@H]12 [Compound 16]
[1]; read-out: Mean Growth, %
  activity at 10 µM: 101%
[1]; read-out: Range of Growth, %
  activity at 10 µM: 59.3 to 141%
Yeast α-Glucosidase
  IC50: > 100 µM
[4]; 10 μM
  Rat Liver ER Neutral α-Glucosidase Inhibition, m ± SD: 9.05 ± 6.68%
[4]; 100 μM
  Rat Liver ER Neutral α-Glucosidase Inhibition, m ± SD: 14.94 ± 6.31%

## C=C(C)[C@@H]1CC[C@]2(C=NCCCNCCCCN)CC[C@]3(C)[C@H](CC[C@@H]4[C@@]5(C)CCC(=O)C(C)(C)[C@@H]5CC[C@]43C)[C@@H]12 [Compound 22]
[1]; read-out: Mean Growth, %
  activity at 10 µM: 102%
[1]; read-out: Range of Growth, %
  activity at 10 µM: 80.5 to 123%
Yeast α-Glucosidase
  IC50: > 100 µM
[4]; 10 μM
  Rat Liver ER Neutral α-Glucosidase Inhibition, m ± SD: 31.42 ± 7.96 %
[4]; 100 μM
  Rat Liver ER Neutral α-Glucosidase Inhibition, m ± SD: 58.52 ± 8.21 %

## C=C(C)[C@@H]1CC[C@]2(C=NCCCNCCCCN)CC[C@]3(C)[C@H](CC[C@@H]4[C@@]5(C)CCCNC(C)(C)[C@@H]5CC[C@]43C)[C@@H]12 [Compound 24]
[1]; read-out: Mean Growth, %
  activity at 10 µM: 93.6%
[1]; read-out: Range of Growth, %
  activity at 10 µM: 21.7 to 132%
Yeast α-Glucosidase
  IC50: > 100 µM
[4]; 10 μM
  Rat Liver ER Neutral α-Glucosidase Inhibition, m ± SD: 26.96 ± 2.33 %
[4]; 100 μM
  Rat Liver ER Neutral α-Glucosidase Inhibition, m ± SD: 54.62 ± 15.38 %
SR
  activity at 10 µM: 21.7%

## C=C(C)[C@@H]1CC[C@]2(C(=O)OC)CC[C@]3(C)[C@H](CC[C@@H]4[C@@]5(C)C/C(=C/NC(N)=O)C(=O)C(C)(C)[C@@H]5CC[C@]43C)[C@@H]12 [Compound 25]
[1]; read-out: Mean Growth, %
  activity at 10 µM: 91.7%
[1]; read-out: Range of Growth, %
  activity at 10 µM: 21.2 to 112%
Klebsiella pneumonia
  inhibition at 32 µg/mL: 2.44%
Pseudomonas aeruginosa
  inhibition at 32 µg/mL: -8.92%
[2]
  inhibition at 32 µg/mL: 19.8%
[3]
  inhibition of growth of pathogenic microorganisms: did not inhibit the growth
Candida albicans
  inhibition at 32 µg/mL: 14%
Yeast α-Glucosidase
  IC50: 53.3 ± 5.7 µM
Cryptococcus neoformans
  inhibition at 32 µg/mL: -7.93%
[4]; 10 μM
  Rat Liver ER Neutral α-Glucosidase Inhibition, m ± SD: 8.76 ± 9.63%
[4]; 100 μM
  Rat Liver ER Neutral α-Glucosidase Inhibition, m ± SD: 9.62 ± 6.94%
SR
  activity at 10 µM: 21.2%
Escherichia coli
  inhibition at 32 µg/mL: -5.34%
Acinetobacter baumannii
  inhibition at 32 µg/mL: 40.9%

## C=C(C)[C@@H]1CC[C@]2(C(=O)OC)CC[C@]3(C)[C@H](CC[C@@H]4[C@@]5(C)C/C(=C/NC(N)=S)C(=O)C(C)(C)[C@@H]5CC[C@]43C)[C@@H]12 [Compound 26]
[1]; read-out: Mean Growth, %
  activity at 10 µM: 90.5%
[1]; read-out: Range of Growth, %
  activity at 10 µM: 60.9 to 126%
Klebsiella pneumonia
  inhibition at 32 µg/mL: -3.89%
Pseudomonas aeruginosa
  inhibition at 32 µg/mL: -4.64%
[2]
  inhibition at 32 µg/mL: 12.7%
[3]
  inhibition of growth of pathogenic microorganisms: did not inhibit the growth
Candida albicans
  inhibition at 32 µg/mL: 5.83%
Yeast α-Glucosidase
  IC50: > 100 µM
Cryptococcus neoformans
  inhibition at 32 µg/mL: -13%
[4]; 10 μM
  Rat Liver ER Neutral α-Glucosidase Inhibition, m ± SD: 11.63 ± 9.09%
[4]; 100 μM
  Rat Liver ER Neutral α-Glucosidase Inhibition, m ± SD: 26.60 ± 13.03%
Escherichia coli
  inhibition at 32 µg/mL: -7.03%
Acinetobacter baumannii
  inhibition at 32 µg/mL: 28.2%
